Columns and labels:
[1] = molecular target: Cyclin-dependent kinase-like 2 (Homo sapiens) (UniProt Q92772); conditions: Compound concentration 100.0 nM
[2] = molecular target: Serine/threonine-protein kinase 36 (Homo sapiens) (UniProt Q9NRP7); conditions: Compound concentration 100.0 nM
[3] = molecular target: Mitogen-activated protein kinase kinase kinase 7 (Homo sapiens) (UniProt O43318); conditions: Compound concentration 100.0 nM
[4] = molecular target: Inhibitor of nuclear factor kappa-B kinase subunit beta (Homo sapiens) (UniProt O14920); conditions: Compound concentration 100.0 nM
[5] = molecular target: Serine/threonine-protein kinase haspin (Homo sapiens) (UniProt Q8TF76); conditions: Compound concentration 100.0 nM
[6] = molecular target: 5'-AMP-activated protein kinase catalytic subunit alpha-1 (Homo sapiens) (UniProt Q13131); conditions: Compound concentration 100.0 nM
[7] = molecular target: Serine/threonine-protein kinase PRP4 homolog (Homo sapiens) (UniProt Q13523); conditions: Compound concentration 100.0 nM
[8] = molecular target: T1, Aurora kinase A (Homo sapiens) (UniProt O14965); conditions: Compound concentration 100.0 nM
T1 sequence (whole entry): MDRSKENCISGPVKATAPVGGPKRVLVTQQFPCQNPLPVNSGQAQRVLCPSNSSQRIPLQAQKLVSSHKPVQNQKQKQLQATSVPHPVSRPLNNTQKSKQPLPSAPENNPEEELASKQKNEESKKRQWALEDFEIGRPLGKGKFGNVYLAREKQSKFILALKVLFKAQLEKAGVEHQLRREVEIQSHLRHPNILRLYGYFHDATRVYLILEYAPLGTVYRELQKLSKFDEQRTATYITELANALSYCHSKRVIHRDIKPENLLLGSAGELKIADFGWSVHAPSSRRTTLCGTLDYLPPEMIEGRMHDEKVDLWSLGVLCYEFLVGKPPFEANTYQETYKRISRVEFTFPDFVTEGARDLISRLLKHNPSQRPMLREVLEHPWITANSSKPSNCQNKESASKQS

[9] = molecular target: Inhibitor of nuclear factor kappa-B kinase subunit alpha (Homo sapiens) (UniProt O15111); conditions: Compound concentration 100.0 nM
[10] = molecular target: Phosphatidylinositol 5-phosphate 4-kinase type-2 beta (Homo sapiens) (UniProt P78356); conditions: Compound concentration 100.0 nM
[11] = molecular target: Cyclin-dependent kinase 9 (Homo sapiens) (UniProt P50750); conditions: Compound concentration 100.0 nM
[12] = molecular target: Cyclin-dependent kinase 11A (Homo sapiens) (UniProt Q9UQ88); conditions: Compound concentration 100.0 nM
[13] = molecular target: Cyclin-G-associated kinase (Homo sapiens) (UniProt O14976); conditions: Compound concentration 100.0 nM
[14] = test system: Mast/stem cell growth factor receptor Kit (Homo sapiens), P10721 [V559D,T670I]; conditions: Compound concentration 100.0 nM
[15] = molecular target: Citron Rho-interacting kinase (Homo sapiens) (UniProt O14578); conditions: Compound concentration 100.0 nM
[16] = molecular target: Insulin receptor-related protein (Homo sapiens) (UniProt P14616); conditions: Compound concentration 100.0 nM
[17] = molecular target: MAP kinase-interacting serine/threonine-protein kinase 2 (Homo sapiens) (UniProt Q9HBH9); conditions: Compound concentration 100.0 nM
[18] = molecular target: 5-hydroxytryptamine receptor 7 (Homo sapiens) (UniProt P34969); conditions: Compound concentration 10.0 uM
[19] = molecular target: Tyrosine-protein kinase receptor Tie-1 (Homo sapiens) (UniProt P35590); conditions: Compound concentration 100.0 nM
[20] = molecular target: Dual specificity mitogen-activated protein kinase kinase 2 (Homo sapiens) (UniProt P36507); conditions: Compound concentration 100.0 nM
[21] = molecular target: Serine/threonine-protein kinase Sgk3 (Homo sapiens) (UniProt Q96BR1); conditions: Compound concentration 100.0 nM
[22] = molecular target: Mitogen-activated protein kinase kinase kinase 13 (Homo sapiens) (UniProt O43283); conditions: Compound concentration 100.0 nM
[23] = molecular target: D(2) dopamine receptor (Homo sapiens) (UniProt P14416); conditions: Compound concentration 10.0 uM
[24] = molecular target: Macrophage colony-stimulating factor 1 receptor (Homo sapiens) (UniProt P07333); conditions: Compound concentration 100.0 nM
[25] = molecular target: Mitogen-activated protein kinase kinase kinase 6 (Homo sapiens) (UniProt O95382); conditions: Compound concentration 100.0 nM
[26] = molecular target: Serine/threonine-protein kinase tousled-like 2 (Homo sapiens) (UniProt Q86UE8); conditions: Compound concentration 100.0 nM
[27] = test system: Phosphatidylinositol 4,5-bisphosphate 3-kinase catalytic subunit alpha isoform (Homo sapiens), P42336 [E545K]; conditions: Compound concentration 100.0 nM
[28] = molecular target: Phosphatidylinositol 4-kinase beta (Homo sapiens) (UniProt Q9UBF8); conditions: Compound concentration 100.0 nM
[29] = molecular target: T2, Protein kinase C iota type (Homo sapiens) (UniProt P41743); conditions: Compound concentration 100.0 nM
T2 sequence (whole entry): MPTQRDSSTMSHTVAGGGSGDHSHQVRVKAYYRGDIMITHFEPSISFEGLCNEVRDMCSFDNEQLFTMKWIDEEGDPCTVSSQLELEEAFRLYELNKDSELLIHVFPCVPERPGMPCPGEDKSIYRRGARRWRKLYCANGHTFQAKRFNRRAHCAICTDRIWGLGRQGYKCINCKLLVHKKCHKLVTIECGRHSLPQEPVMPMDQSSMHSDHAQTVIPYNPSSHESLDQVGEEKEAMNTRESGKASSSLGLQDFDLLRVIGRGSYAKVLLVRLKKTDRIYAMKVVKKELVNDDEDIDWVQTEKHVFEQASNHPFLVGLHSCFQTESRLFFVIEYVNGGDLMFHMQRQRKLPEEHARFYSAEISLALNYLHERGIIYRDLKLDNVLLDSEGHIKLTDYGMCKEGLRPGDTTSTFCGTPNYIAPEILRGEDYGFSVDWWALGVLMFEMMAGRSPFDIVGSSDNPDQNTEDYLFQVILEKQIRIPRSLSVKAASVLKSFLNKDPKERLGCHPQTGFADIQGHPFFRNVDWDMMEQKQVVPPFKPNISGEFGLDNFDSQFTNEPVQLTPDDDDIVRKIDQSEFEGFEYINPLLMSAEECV

[30] = molecular target: Ribosomal protein S6 kinase alpha-4 (Homo sapiens) (UniProt O75676); conditions: Compound concentration 100.0 nM
[31] = molecular target: Tyrosine-protein kinase Yes (Homo sapiens) (UniProt P07947); conditions: Compound concentration 100.0 nM

Sequence of Serine/threonine-protein kinase tousled-like 2 (Homo sapiens) (Q86UE8 whole entry, looked up, canonical isoform): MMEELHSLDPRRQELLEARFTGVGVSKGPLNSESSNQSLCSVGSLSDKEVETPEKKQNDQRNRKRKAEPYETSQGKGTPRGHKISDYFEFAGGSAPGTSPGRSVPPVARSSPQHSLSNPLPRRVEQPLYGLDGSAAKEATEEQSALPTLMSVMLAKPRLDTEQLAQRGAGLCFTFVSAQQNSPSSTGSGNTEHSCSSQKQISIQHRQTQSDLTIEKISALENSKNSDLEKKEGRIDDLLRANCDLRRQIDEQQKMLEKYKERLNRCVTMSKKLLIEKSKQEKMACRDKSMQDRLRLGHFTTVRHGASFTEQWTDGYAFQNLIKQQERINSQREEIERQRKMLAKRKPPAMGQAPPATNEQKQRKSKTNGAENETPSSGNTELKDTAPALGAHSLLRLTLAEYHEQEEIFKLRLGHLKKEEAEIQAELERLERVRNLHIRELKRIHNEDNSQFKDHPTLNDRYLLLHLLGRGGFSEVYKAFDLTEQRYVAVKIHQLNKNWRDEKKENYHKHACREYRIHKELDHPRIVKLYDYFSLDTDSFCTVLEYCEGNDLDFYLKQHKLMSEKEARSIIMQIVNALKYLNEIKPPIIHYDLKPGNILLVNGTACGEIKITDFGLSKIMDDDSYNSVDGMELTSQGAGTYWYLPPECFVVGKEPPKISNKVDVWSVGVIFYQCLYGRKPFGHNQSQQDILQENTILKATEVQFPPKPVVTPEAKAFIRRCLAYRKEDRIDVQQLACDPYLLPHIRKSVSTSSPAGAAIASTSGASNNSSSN
Sequence of Phosphatidylinositol 4,5-bisphosphate 3-kinase catalytic subunit alpha isoform (Homo sapiens), P42336 [E545K] (P42336 whole entry E545K, canonical isoform): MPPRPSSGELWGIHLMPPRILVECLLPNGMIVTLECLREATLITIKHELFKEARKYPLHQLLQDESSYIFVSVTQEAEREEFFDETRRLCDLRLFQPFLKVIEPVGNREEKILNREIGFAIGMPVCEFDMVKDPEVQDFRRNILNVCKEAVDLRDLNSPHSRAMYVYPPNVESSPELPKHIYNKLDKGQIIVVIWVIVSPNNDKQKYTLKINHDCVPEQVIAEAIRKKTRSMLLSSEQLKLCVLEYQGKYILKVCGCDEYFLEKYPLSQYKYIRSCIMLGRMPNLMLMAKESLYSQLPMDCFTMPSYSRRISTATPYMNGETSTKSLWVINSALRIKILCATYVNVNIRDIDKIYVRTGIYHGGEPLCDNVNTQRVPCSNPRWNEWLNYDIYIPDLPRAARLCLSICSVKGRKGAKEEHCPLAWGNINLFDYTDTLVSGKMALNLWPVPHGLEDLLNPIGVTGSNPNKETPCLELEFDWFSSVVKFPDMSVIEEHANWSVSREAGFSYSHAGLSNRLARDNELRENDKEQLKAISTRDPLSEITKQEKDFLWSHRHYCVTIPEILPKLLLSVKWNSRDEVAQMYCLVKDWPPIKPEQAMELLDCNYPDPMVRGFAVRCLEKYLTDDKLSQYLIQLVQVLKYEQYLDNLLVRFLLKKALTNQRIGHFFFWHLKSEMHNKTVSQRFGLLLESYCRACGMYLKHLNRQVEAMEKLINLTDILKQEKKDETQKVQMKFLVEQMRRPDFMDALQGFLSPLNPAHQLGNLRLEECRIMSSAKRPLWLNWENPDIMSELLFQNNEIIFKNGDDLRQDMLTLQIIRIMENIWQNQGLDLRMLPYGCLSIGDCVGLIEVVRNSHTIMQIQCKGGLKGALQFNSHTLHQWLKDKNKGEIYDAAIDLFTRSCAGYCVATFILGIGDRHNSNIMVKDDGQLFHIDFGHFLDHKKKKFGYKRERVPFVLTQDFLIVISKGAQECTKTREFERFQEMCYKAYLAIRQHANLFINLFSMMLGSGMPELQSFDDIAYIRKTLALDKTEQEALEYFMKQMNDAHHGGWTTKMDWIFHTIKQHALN
Sequence of Cyclin-dependent kinase 11A (Homo sapiens) (Q9UQ88 whole entry): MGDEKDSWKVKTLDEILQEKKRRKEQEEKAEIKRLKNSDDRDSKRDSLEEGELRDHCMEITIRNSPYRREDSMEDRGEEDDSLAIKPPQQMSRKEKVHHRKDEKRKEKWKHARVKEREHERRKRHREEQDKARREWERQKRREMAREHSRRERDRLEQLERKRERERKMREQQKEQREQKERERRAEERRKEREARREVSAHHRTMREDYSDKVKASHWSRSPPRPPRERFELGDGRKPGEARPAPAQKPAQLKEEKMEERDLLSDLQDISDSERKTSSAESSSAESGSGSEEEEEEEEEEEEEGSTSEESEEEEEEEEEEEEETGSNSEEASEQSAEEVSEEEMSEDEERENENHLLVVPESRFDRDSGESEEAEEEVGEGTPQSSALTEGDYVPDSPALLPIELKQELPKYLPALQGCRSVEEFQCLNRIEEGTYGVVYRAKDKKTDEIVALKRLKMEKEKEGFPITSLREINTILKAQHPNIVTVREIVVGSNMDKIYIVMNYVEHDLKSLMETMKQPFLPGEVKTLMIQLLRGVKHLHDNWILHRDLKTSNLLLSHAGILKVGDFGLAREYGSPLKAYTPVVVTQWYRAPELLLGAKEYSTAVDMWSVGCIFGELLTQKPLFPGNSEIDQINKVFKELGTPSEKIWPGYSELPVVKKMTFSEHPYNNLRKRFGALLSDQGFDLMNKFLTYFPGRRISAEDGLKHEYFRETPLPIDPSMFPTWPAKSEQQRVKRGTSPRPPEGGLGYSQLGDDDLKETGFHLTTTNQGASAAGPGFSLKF
Sequence of Serine/threonine-protein kinase PRP4 homolog (Homo sapiens) (Q13523 whole entry): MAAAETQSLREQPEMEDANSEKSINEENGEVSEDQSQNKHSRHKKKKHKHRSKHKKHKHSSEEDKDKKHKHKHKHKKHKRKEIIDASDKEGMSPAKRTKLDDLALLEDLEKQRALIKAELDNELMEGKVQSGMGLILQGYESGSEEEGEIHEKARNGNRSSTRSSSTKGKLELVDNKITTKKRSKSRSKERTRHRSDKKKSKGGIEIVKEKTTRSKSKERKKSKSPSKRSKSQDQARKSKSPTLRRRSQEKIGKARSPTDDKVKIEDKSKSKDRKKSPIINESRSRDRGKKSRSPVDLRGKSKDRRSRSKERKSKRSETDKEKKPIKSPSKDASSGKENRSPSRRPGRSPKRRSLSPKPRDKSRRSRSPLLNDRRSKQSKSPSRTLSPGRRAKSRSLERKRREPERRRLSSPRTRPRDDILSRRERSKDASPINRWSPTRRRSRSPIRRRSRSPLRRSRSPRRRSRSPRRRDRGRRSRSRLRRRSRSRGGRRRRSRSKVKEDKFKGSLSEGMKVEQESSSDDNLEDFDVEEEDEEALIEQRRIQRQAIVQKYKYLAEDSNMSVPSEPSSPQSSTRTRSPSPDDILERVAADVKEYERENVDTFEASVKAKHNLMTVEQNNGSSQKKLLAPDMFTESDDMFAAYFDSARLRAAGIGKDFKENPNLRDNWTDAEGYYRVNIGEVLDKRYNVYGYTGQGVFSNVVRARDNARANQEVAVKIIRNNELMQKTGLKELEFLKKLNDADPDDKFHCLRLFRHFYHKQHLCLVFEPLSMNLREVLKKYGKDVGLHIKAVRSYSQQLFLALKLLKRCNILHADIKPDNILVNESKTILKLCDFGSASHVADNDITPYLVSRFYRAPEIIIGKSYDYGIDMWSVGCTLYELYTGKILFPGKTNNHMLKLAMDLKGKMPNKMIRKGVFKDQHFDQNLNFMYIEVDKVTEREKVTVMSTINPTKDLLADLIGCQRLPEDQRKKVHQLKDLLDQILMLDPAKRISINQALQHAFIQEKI
Sequence of Mast/stem cell growth factor receptor Kit (Homo sapiens), P10721 [V559D,T670I] (P10721 whole entry V559D/T670I): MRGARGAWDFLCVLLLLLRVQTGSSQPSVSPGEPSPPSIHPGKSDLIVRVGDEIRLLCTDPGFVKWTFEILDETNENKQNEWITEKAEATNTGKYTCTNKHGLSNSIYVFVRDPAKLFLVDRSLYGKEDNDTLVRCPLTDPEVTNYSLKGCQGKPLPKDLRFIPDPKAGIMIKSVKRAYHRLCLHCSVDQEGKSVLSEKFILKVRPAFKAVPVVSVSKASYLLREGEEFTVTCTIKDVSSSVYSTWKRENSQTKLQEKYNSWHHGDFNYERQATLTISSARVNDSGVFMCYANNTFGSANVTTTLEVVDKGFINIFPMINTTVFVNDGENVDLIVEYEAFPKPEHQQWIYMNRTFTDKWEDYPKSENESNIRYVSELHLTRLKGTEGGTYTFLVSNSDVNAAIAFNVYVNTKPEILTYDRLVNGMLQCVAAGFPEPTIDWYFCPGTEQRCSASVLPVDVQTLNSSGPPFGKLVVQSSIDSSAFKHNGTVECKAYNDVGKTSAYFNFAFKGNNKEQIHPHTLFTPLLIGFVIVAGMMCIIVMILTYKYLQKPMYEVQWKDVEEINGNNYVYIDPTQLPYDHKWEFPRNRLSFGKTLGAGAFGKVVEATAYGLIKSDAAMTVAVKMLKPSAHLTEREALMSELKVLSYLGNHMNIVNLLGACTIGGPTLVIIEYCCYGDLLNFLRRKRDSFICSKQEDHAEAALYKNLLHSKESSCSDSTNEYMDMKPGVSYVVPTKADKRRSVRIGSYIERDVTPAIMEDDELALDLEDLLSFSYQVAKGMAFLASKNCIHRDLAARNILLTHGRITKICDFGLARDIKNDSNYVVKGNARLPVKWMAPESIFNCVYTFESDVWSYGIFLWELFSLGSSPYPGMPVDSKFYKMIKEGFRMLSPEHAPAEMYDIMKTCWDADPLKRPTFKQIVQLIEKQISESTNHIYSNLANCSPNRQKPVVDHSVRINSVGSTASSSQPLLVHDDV
Sequence of Phosphatidylinositol 5-phosphate 4-kinase type-2 beta (Homo sapiens) (P78356 whole entry): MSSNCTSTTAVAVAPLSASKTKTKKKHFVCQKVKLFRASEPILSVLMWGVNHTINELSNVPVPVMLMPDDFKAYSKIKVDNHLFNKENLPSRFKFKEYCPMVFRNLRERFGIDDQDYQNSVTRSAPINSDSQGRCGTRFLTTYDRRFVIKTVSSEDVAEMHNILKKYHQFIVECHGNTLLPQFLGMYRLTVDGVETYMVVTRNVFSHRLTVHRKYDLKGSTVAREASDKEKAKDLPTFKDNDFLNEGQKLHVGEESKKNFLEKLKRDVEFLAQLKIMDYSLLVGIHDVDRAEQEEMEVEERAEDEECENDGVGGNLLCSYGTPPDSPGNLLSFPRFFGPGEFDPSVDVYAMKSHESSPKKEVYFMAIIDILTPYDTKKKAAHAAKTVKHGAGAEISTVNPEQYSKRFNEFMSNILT

Cc1c[nH]c2nccc(Oc3c(F)cc(Nc4cc(Cl)nc(N)n4)cc3F)c12 [BAY-549]
inactive: residual activity [1] 93% | residual activity [2] 85% | residual activity [3] 92% | residual activity [4] 69% | residual activity [5] 61% | residual activity [6] 100% | residual activity [7] 89% | residual activity [8] 94% | residual activity [9] 66% | residual activity [10] 90% | residual activity [11] 78% | residual activity [12] 100% | residual activity [13] 100% | residual activity [14] 83% | residual activity [15] 100% | residual activity [16] 91% | residual activity [17] 90% | inhibition [18] 9.29% | residual activity [19] 94% | residual activity [20] 91% | residual activity [21] 88% | residual activity [22] 81% | inhibition [23] -4.56% | residual activity [24] 100% | residual activity [25] 100% | residual activity [26] 95% | residual activity [27] 82% | residual activity [28] 97% | residual activity [29] 100% | residual activity [30] 83% | residual activity [31] 96%

Cn1cc(Cl)c2c(Oc3c(F)cc(Nc4cc(Cl)nc(N)n4)cc3F)ccnc21 [BAY-4900]
inactive: residual activity [1] 100% | residual activity [2] 93% | residual activity [3] 100% | residual activity [4] 87% | residual activity [5] 74% | residual activity [6] 100% | residual activity [7] 81% | residual activity [8] 100% | residual activity [9] 85% | residual activity [10] 76% | residual activity [11] 100% | residual activity [12] 100% | residual activity [13] 100% | residual activity [14] 91% | residual activity [15] 100% | residual activity [16] 100% | residual activity [17] 90% | inhibition [18] -1.63% | residual activity [19] 100% | residual activity [20] 100% | residual activity [21] 90% | residual activity [22] 99% | inhibition [23] 1.05% | residual activity [24] 93% | residual activity [25] 100% | residual activity [26] 100% | residual activity [27] 78% | residual activity [28] 100% | residual activity [29] 100% | residual activity [30] 100% | residual activity [31] 93%
